Test results taken from ChEMBL document CHEMBL5512670 (J Med Chem, 2024).

Key:
[1] = Dissociation constant, pKa of the compound; type: physicochemical
[2] = Drug concentration in Wistar rat plasma at 50 mg/kg,po administration; type: ADME, organism-based; conditions: in vivo
[3] = Drug metabolism in human liver microsomes assessed as metabolite formation; type: ADME, Microsome
[4] = Lipophilicity, logD of the compound at pH 7.4; type: physicochemical; conditions: buffer
[5] = Cmax in C57BL/6 mouse at 10 mg/kg,po administrated upto 24 hrs by LC-MS/MS analysis; type: ADME, organism-based; conditions: in vivo
[6] = Half life in Wistar rat at 1 mg/kg,po administration; type: ADME, organism-based; conditions: in vivo
[7] = AUC (0 to 24 hrs) in C57BL/6 mouse infected with Clostridioides difficile CD1264 at 50 mg/kg,po administrated upto 24 hrs by LC-MS/MS analysis; type: ADME, organism-based; conditions: in vivo
[8] = Cmax in C57BL/6 mouse infected with Clostridioides difficile CD1264 at 50 mg/kg,po administrated upto 24 hrs by LC-MS/MS analysis; type: ADME, organism-based; conditions: in vivo
[9] = AUC (0 to 24 hrs) in C57BL/6 mouse infected with Clostridioides difficile CD1264 at 10 mg/kg,po administrated upto 24 hrs by LC-MS/MS analysis; type: ADME, organism-based; conditions: in vivo
[10] = AUC (0 to 24 hrs) in C57BL/6 mouse at 10 mg/kg,po administrated upto 24 hrs by LC-MS/MS analysis; type: ADME, organism-based; conditions: in vivo
[11] = Cmax in C57BL/6 mouse at 50 mg/kg,po administrated upto 24 hrs by LC-MS/MS analysis; type: ADME, organism-based; conditions: in vivo
[12] = Cmax in C57BL/6 mouse infected with Clostridioides difficile CD1264 at 10 mg/kg,po administrated upto 24 hrs by LC-MS/MS analysis; type: ADME, organism-based; conditions: in vivo
[13] = AUC (0 to infinity) in Wistar rat at 1 mg/kg,po administration; type: ADME, organism-based; conditions: in vivo
[14] = Drug metabolism in human Hepatocyte assessed as metabolite formation; type: ADME, cell-based; conditions: hepatocytes
[15] = Volume of distribution at steady state in Wistar rat at 1 mg/kg,po administration; type: ADME, organism-based; conditions: in vivo
[16] = Clearance in Wistar rat blood at 1 mg/kg,po administration; type: ADME, organism-based
[17] = Oral bioavailability in Wistar rat plasma at 50 mg/kg administration; type: ADME, organism-based
[18] = Clearance in Wistar rat plasma at 1 mg/kg,po administration; type: ADME, organism-based
[19] = AUC (0 to 24 hrs) in C57BL/6 mouse at 50 mg/kg,po administrated upto 24 hrs by LC-MS/MS analysis; type: ADME, organism-based; conditions: in vivo

## O=C(O)c1cn(C2CC2)c2cc(N3CCC(O)(COc4ccc(N5C[C@H](CO)OC5=O)cc4F)CC3)c(F)cc2c1=O [CADAZOLID]
[1]
  pKa: 6
[2]
  Cp: 1 ng/mL
[3]
  Drug metabolism: Metabolite_Notdetected
[4]
  logD: 1.2
[5]
  Cmax: 3 ng/mL
[6]
  half-life: 36 min
[7]
  AUC(0-t) at 24 h: 147 ng·h/mL
[8]
  Cmax: 10 ng/mL
[9]
  AUC(0-t) at 24 h: 27 ng·h/mL
[10]
  AUC(0-t) at 24 h: 9 ng·h/mL
[11]
  Cmax: 6 ng/mL
[12]
  Cmax: 12 ng/mL
[13]
  AUC(0-inf): 255 ng·h/mL
[14]
  Drug metabolism: Metabolite_Notdetected
[15]
  Vdss: 2 L/kg
[16]
  CL/F: 96 mL/min/kg
[17]
  bioavailability: 0%
[18]
  CL/F: 65 mL/min/kg
[19]
  AUC(0-t) at 24 h: 78 ng·h/mL
